As a reminder, the MIC is the lowest concentration found to suppress growth. By LD50 is commonly meant the dose expected to kill half of the subjects tested. High values mean a less toxic substance, low ones a more toxic substance.

The text below walks through data of patent US6008356A, “Pharmaceutically available protoberberine salts derivatives, and protoberberine salts derivatives, and protoberberine derivatives and salts thereof” (priority 1998, dated 1999).

The subject of data set [1] is C. albicans ATCC 28838. In words: MIC. Type of data set: cell-based, Candida albicans. To be noted: Candida albicans, ATCC28838; C. albicans ATCC 28838; read-out: MIC.
For data set [2], the system named is C. albicans ATCC 10231. In words: MIC. In kind it is cell-based. To be noted: Candida albicans, ATCC10231; C. albicans ATCC 10231; read-out: MIC.
In data set [3] the test system is C. glulliermendi. In words: MIC. The settings on record: C. glulliermendi; read-out: MIC. Type of data set: cell-based.
Data set [4] has as its system C. albicans U.K. In words: MIC. Type of data set: cell-based. The settings on record: Candida albicans; C. albicans U.K.; read-out: MIC.
For data set [5], the system named is C. albicans IFO 1385. In words: MIC. In kind it is cell-based, Candida albicans. The settings on record: Candida albicans, IFO1385; C. albicans IFO 1385; read-out: MIC.
The test system of data set [6] is C. parapsilosis. In words: MIC. Type of data set: cell-based. The settings on record: Lodderomyces parapsilosis; C. parapsilosis; read-out: MIC.
The test system of data set [7] is C. krusei. In words: MIC. Type of data set: cell-based. To be noted: Pichia kudriavzevii; C. krusei; read-out: MIC.
For data set [8], the system named is C. albicans ATCC 11651. In words: MIC. The settings on record: Candida albicans, ATCC11651; C. albicans ATCC 11651; read-out: MIC. In kind it is cell-based, Candida albicans.
Data set [9] relates to C. albicans OY 003. In words: MIC. In kind it is cell-based, Candida albicans. The settings on record: Candida albicans, OY003; C. albicans OY 003; read-out: MIC.
Data set [10] has as its system C. glabrata. In words: MIC. Type of data set: cell-based. To be noted: Nakaseomyces glabratus; C. glabrata; read-out: MIC.
Data set [11] concerns Epidermophyton floccosum. In words: Antifungal efficacy of creamy formulation against local fungal skin infection. In kind it is in vivo, mouse (SKH/1, hairless, male). The settings on record: 0.5% cream, topical. As for the experimental part:
Specific pathogen free SKH/1 male mouse(Hairless) of which weight is 30-35 g and age is 5 weeks, was reared with sterilized water and feed for 12 night/day in the condition of 21-23° C. and of 50% relative humidity. Five mice were allocated by each group. After skin infection, each mouse was taken in separate cage. The strain of microorganism for infection(Epidermophyton floccosum) was cultivated on a flat medium of SDA(Sabouraud Dextrose Agar) for 5-7 days and after confirmation of macrocomidia, 3 ml of RPMI (Rosewell Park Memorial Institute) 1640 media per each flat medium was added thereto and then scraped well using loop to remove hyphae from media. The floating liquid was suspended briefly and then diluted with RPMI 1640 media to adjust the concentration of hyphae to 2×10^6 CFU/ml. Mouse was anesthetized and marked on back site(lumbosacral area) in a shape of circle of which diameter is 1.5 cm. Then, the inner part of marked skin was scratched with sand paper. The scratched part was covered with a filter paper to preserve inoculated microorganism for a long time and thereby stimulating the skin continuously. 0.2 ml of fungus solution of which concentration is adjusted as described above, was inoculated between the skin and filter paper. 5 Days after the inoculation, the filter paper was removed and the infection of skin was examined. The test formulations, 0.5% creamy formulations of the compounds Nos. 62 and 85, 1.0% creamy formulation of Terbinafine(Lamisile cream) and a placebo was applied on the infected areas in a same amount once a day for 5 days. The clinical evaluation on the change of the infected area in 5 days after the inoculation was performed and expressed numerically from 0 to 4. The daily change of the infected area was checked every day. The result of each group was compared with each other.
1: Mild erythema or small number of skin eruption
2: Well-demarcated erythema with scales or mild skin eruption of infected area
3: Wide area of marked skin eruption, scales, swelling or severe skin eruption with partial swelling and scales
4: The same as those of control, or severe skin eruption in entire lesion
The result was calculated as follows;
T: Average score of clinical evaluation in drug treated area
K: Average score of clinical evaluation in placebo control group
Moreover, the antifungal efficacies of the 0.5% creamy formulation of the compounds Nos. 29, 35, 60, 62, 63 and 85, and 1% creamy formulation of Terbinafme (Lamisil cream), which are measured by applying the above formulations on the skin infected with Epidermophyton floccosum of mouse which is the standard animal for the test of local fungal skin infection, i.e, Specific Pathogen Free SKH/1, are described in the following Table 4.

The test system of data set [12] is E. floccosum. In words: MIC. In kind it is cell-based, Epidermophyton floccosum. To be noted: Epidermophyton floccosum; E. floccosum; read-out: MIC.
Data set [13] concerns C. albicans OY 019. In words: MIC. In kind it is cell-based, Candida albicans. The settings on record: Candida albicans, OY019; C. albicans OY 019; read-out: MIC.
Data set [14] concerns C. albicans KCTC 1940. In words: MIC. The settings on record: Candida albicans, KCTC1940; C. albicans KCTC 1940; read-out: MIC. Type of data set: cell-based, Candida albicans.
In data set [15] the test system is male ICR mice. The settings on record: mouse, in vivo.
The test system of data set [16] is salmonella typhimurium. In words: bacterial reverse mutation test (Ames test). Type of data set: cell-based.
The subject of data set [17] is cultured lung cells derived from chinese hamster. In kind it is cell-based.
A short description of data set [18]: acute oral toxicity. The settings on record: rat, in vivo, po, rats. As for the experimental part: (§1) Meanwhile, the toxicity test of the compound of the present invention was performed using […]. The compound was suspended in propylene glycol. The resulting suspension was medicated respectively on 5 female rats and 5 male rats(SD) of which age are 5 weeks, via oral after 12 hour starvation. The general symtoms, weight change and lethal case of the above rats were investigated. In cases of tests of the compound Nos. 25, 62, 63 and 85 (delivery of 2,000 mg/kg), the general symtom and weight change were normal and the lethal case was not observed. […] The toxicity data on the compound Nos. 25, 62, 63 and 85 are described in the following Table 5. In light forgoings, the compounds of the present invention are safe in toxicity and have the excellent lethal effect and growth-inhibition effect against fungus.

The subject of data set [19] is rats. In words: acute oral toxicity. To be noted: rat, in vivo. As for the experimental part: as §1
Data set [20] relates to Gram-negative or Gram-positive bacteria, such as Staphylococcus aureus, Staphylococcus hemolyticus, Salmonella typhosa, Shigella dysenteriae, Shigella …. To be noted: cited from earlier work.

SMILES strings stand for the structures. Some results are limits rather than exact numbers.

In the case of `COc1ccc2c(Cc3ccc(-c4ccccc4)cc3)c3[n+](cc2c1OC)CCc1cc2c(cc1-3)OCO2` [compound 35, 13-(4-phenylbenzyl)berberine chloride], the MIC in data set [1] was 1.56 µg/mL; in data set [2], 6.25 µg/mL; in data set [3] it was 12.5 µg/mL; in data set [4], 12.5 µg/mL; in data set [5] it was 6.25 µg/mL; in [6], > 100 µg/mL. Besides, the minimum inhibitory concentration (MIC) is 3.12 µg/mL in [7]; 0.78 µg/mL in data set [8]; 0.78 µg/mL in [9]; > 100 µg/mL in data set [10]; 12.5 µg/mL in data set [12]; 1.56 µg/mL in data set [13]. In addition, the MIC in data set [14] amounted to 0.78 µg/mL. The “Efficacy (%) 0 day later” value in [11] was 0%. Further, the “Efficacy (%) 1 day later” value in data set [11] is recorded as 36.0%. For the same compound, the “Efficacy (%) 2 day later” value in data set [11] amounted to 57.9%. Besides, the “Efficacy (%) 3 day later” value in [11] was found to be 68.4%. In addition, in [11], the “Efficacy (%) 4 day later” value is 72.2%. Further, the “Efficacy (%) 5 day later” value in data set [11] turned out to be 74.0%. In addition, the “Efficacy (%) 6 day later” value in [11] came to 75.4%. Moreover, the “Efficacy (%) 7 day later” value in data set [11] is 76.8%.

With `CCCOc1cc2c(cc1OCCC)-c1cc3ccc(OCCC)c(OCCC)c3c[n+]1CC2` [compound 85, 2,3,9,10-tetrapropoxy protoberberine iodide], the MIC was 0.78 µg/mL in data set [1]; 6.25 µg/mL in data set [2]; > 100 µg/mL in [3]; 50 µg/mL in data set [4]; 6.25 µg/mL in data set [5]; 12.5 µg/mL in data set [6]. The minimal inhibitory concentration (MIC) is 1.56 µg/mL in [7]; 0.4 µg/mL in [8]; 0.4 µg/mL in data set [9]; > 100 µg/mL in data set [10]; > 100 µg/mL in data set [12]; 0.4 µg/mL in data set [13]. Moreover, the MIC in data set [14] was determined as 0.4 µg/mL. Moreover, in [15], the “nucleus test (micronucleous test)” value is reported as “negative”. The AMES test entry in data set [16] is “negative”. In data set [17], the chromosome abnormality test entry is “negative”. In data set [11], the “Efficacy (%) 0 day later” value was 0%. Besides, in [11], the “Efficacy (%) 1 day later” value was 34.5%. For the same compound, the “Efficacy (%) 2 day later” value in data set [11] stood at 38.8%. The “Efficacy (%) 3 day later” value in data set [11] worked out at 42.5%. For the same compound, the “Efficacy (%) 4 day later” value in [11] worked out at 54.6%. Also, in data set [11], the “Efficacy (%) 5 day later” value is given as 63.2%. In addition, the “Efficacy (%) 6 day later” value in data set [11] is on record as 68.0%. The “Efficacy (%) 7 day later” value in data set [11] is recorded as 70.5%. Further, the LD50 in data set [18] (female) and in data set [18] (male) was > 5000 mg/kg throughout. The lethal case entry in data set [19] is “not observed”.

In the case of `COc1ccc2c(c1OC)CN1CCc3cc4c(cc3C1C2)OCO4` (centres unmarked) [tetrahydroberberine], the “antibacterial effect of derivatives without quaternary ammonium salt” value in [20] (Pitea et al. 1972) is listed as “exhibits less effect”.

`COc1ccc2c(Cc3ccc(C(C)C)cc3)c3[n+](cc2c1OC)CCc1cc2c(cc1-3)OCO2` [compound 63, 13-(4-i-propylbenzyl)berberine chloride]: the MIC in [1] is 0.78 µg/mL; in data set [2], 6.25 µg/mL; in data set [3], 12.5 µg/mL; in data set [4], 6.25 µg/mL; in data set [5], 6.25 µg/mL; in data set [6], > 100 µg/mL. Also, the MIC in [7] was 3.12 µg/mL; in data set [8], 0.78 µg/mL; in [9], 6.25 µg/mL; in data set [10], > 100 µg/mL; in [12] it was 12.5 µg/mL; in [13] it was 1.56 µg/mL. Further, the MIC in data set [14] was 1.56 µg/mL. The “nucleus test (micronucleous test)” value in data set [15] is on record as “negative”. The AMES test result in data set [16] is “negative”. Further, the chromosome abnormality test entry in data set [17] was “negative”. Also, the “Efficacy (%) 0 day later” value in data set [11] was determined as 0%. Further, in [11], the “Efficacy (%) 1 day later” value came out at 42.5%. Further, the “Efficacy (%) 2 day later” value in data set [11] is reported as 52.5%. For the same compound, in [11], the “Efficacy (%) 3 day later” value is 59.8%. The “Efficacy (%) 4 day later” value in [11] is 64.6%. In addition, the “Efficacy (%) 5 day later” value in [11] was determined as 73.6%. The “Efficacy (%) 6 day later” value in [11] turned out to be 75.6%. Moreover, the “Efficacy (%) 7 day later” value in data set [11] came to 80.2%. Moreover, the LD50 in data set [18] (female) is > 2000 mg/kg; in data set [18] (male), > 2500 mg/kg. Further, in data set [19], the lethal case result is reported as “not observed”.

With `COc1ccc2cc3[n+](cc2c1OC)CCc1cc2c(cc1-3)OCO2` [Berberine chloride], the antibacterial activity entry in data set [20] (Ukita et al. 1949) is “exhibits antibacterial activity”.

As for `COc1ccc2c(Cc3cccc(C(F)(F)F)c3)c3[n+](cc2c1OC)CCc1cc2c(cc1-3)OCO2` [compound 25, 13-(3-trifluoromethylbenzyl)berberine chloride], in [15], the “nucleus test (micronucleous test)” value was “negative”. Moreover, in data set [16], the AMES test result was “negative”. Besides, the chromosome abnormality test result in data set [17] is “negative”. Further, the values for the LD50 in [18] (female) and in data set [18] (male) were > 2500 mg/kg and > 3000 mg/kg, respectively. The lethal case entry in [19] is “not observed”.
